Measurements published in patent publication US20260363244A1, “HERBICIDAL COMPOSITIONS COMPRISING URACILS” (BASF SE, priority 2022, published 2026).
Where two headings read alike, the source gives them in different places.

Legend:
Assay type in all cases: in vivo
Abutilon theophrasti = experiment: greenhouse post-emergence herbicidal activity, ABUTH; settings: read-out: % activity (solo application); for activity at 0.4 g/ha: 0.4 gai/ha; for activity at 0.8 g/ha: 0.8 gai/ha
Protocol: (§1) The following examples serve to illustrate the invention.
(§2) The culture containers used were plastic pots containing loamy sand with approximately 3.0% of humus as substrate. The seeds of the test plants were sown separately for each species.
(§3) For the post-emergence treatment, the test plants were grown to a plant height of from 3 to 15 cm, depending on the plant habit, and only then treated with the active compounds which had been suspended or emulsified in water. To this end, the test plants were either sown directly, and grown in the same containers, or they were first grown separately as seedlings and transplanted into the test containers a few days prior to treatment.
(§4) Depending on the species, the plants were kept at 10-25 °C and 20-35 °C, respectively. The test period extended over 2 to 4 weeks. During this time, the plants were tended and their response to the individual treatments was evaluated.
(§5) Evaluation was carried out using a scale from 0 to 100. 100 means no emergence of the plants, or complete destruction of at least the above-ground parts, and 0 means no damage or normal course of growth. A good herbicidal activity is given at values of at least 70, and very good herbicidal activity is given at values of at least 85.
(§6) The respective stated components A and B, and if appropriate, C were formulated as a 5% by weight strength emulsion concentrate and, with addition of the amount of solvent system, introduced into the spray liquor used for applying the active compound. In the examples, the solvent used was water.
(§7) In the examples below, using the method of S. R. Colby (1967) “Calculating synergistic and antagonistic responses of herbicide combinations”, Weeds 15, p. 22ff., the value E, which is expected if the activity of the individual active compounds is only additive, was calculated.
(§8) E=X+Y−(X·Y/100) • where • X=percent activity using active compound A at an application rate a; • Y=percent activity using active compound B at an application rate b; • E=expected activity (in %) by A+B at application rates a+b.
(§9) The plants used in the greenhouse experiments were of the following species
(§10) In this context, a.i. means active ingredient, based on 100% active ingredient.
(§11) As indicated the application was post emergent (POST) at the respective growth stage (GS) of the weed.
(§12) Assessment was at the indicated days after treatment (DAT).

Amaranthus tamariscinus = experiment: greenhouse post-emergence herbicidal activity, AMATA; settings: read-out: % activity (solo application); for activity at 0.4 g/ha: 0.4 gai/ha
Protocol: as §1, §2, §3, §4, §5, §6, §7, §8, §9, §10, §11, §12

Kochia scoparia = experiment: greenhouse post-emergence herbicidal activity, KCHSC; settings: for activity at 0.4 g/ha: 0.4 gai/ha; for % activity: solo application, KCHSC
Protocol: as §1, §2, §3, §4, §5, §6, §7, §8, §9, §10, §11, §12

Echinocloa crus-galli = experiment: greenhouse post-emergence herbicidal activity, ECHCG; settings: for activity at 0.4 g/ha: Echinochloa crus-galli, post-emergence, 0.4 gai/ha, read-out: % activity (solo application); for % activity: solo application, ECHCG
Protocol: as §1, §2, §3, §4, §5, §6, §7, §8, §9, §10, §11, §12

Eleusine indica = experiment: greenhouse post-emergence herbicidal activity, ELEIN; settings: read-out: % activity (solo application); for activity at 0.4 g/ha: 0.4 gai/ha
Protocol: as §1, §2, §3, §4, §5, §6, §7, §8, §9, §10, §11, §12

Setaria viridis = experiment: greenhouse post-emergence herbicidal activity, SETVI; settings: for activity at 0.4 g/ha / activity at 0.8 g/ha / activity at […]: Setaria viridis, post-emergence, read-out: % activity (solo application); for activity at 0.4 g/ha: 0.4 gai/ha; for activity at 0.8 g/ha: 0.8 gai/ha; for % activity: solo application, SETVI
Protocol: as §1, §2, §3, §4, §5, §6, §7, §8, §9, §10, §11, §12

Brachiaria decumbens = experiment: greenhouse post-emergence herbicidal activity, BRADC; settings: for activity at […]: Urochloa decumbens, post-emergence, read-out: % activity (solo application)
Protocol: as §1, §2, §3, §4, §5, §6, §7, §8, §9, §10, §11, §12

Avena fatua = experiment: greenhouse post-emergence herbicidal activity, AVEFA; settings: read-out: % activity (solo application); for activity at 0.4 g/ha: 0.4 gai/ha
Protocol: as §1, §2, §3, §4, §5, §6, §7, §8, §9, §10, §11, §12

Setaria faberi = experiment: greenhouse post-emergence herbicidal activity, SETFA; settings: Setaria faberi, post-emergence, 480 h, GS 11-33, 20 DAT, read-out: % activity (solo application)
Protocol: as §1, §2, §3, §4, §5, §6, §7, §8, §9, §10, §11, §12

Commenline benghalensis = experiment: greenhouse post-emergence herbicidal activity, COMBE; settings: read-out: % activity (solo application); for activity at […]: 168 h, GS 11-33, 7 DAT
Protocol: as §1, §2, §3, §4, §5, §6, §7, §8, §9, §10, §11, §12

Digitaria sanguinales = experiment: greenhouse post-emergence herbicidal activity, DIGSA
Protocol: as §1, §2, §3, §4, §5, §6, §7, §8, §9, §10, §11, §12

Sorghum halepense = experiment: greenhouse post-emergence herbicidal activity, SORHA; settings: GS 11-33, 20 DAT
Protocol: as §1, §2, §3, §4, §5, §6, §7, §8, §9, §10, §11, §12

Lolium multiflorum = experiment: greenhouse post-emergence herbicidal activity, LOLMU; settings: for activity at […]: Lolium multiflorum, post-emergence, 3.2 gai/ha, read-out: % activity (solo application)
Protocol: as §1, §2, §3, §4, §5, §6, §7, §8, §9, §10, §11, §12

[1] = 168 h, GS 11-33, 7 DAT, 3.2 gai/ha
[2] = 480 h, GS 11-33, 20 DAT, 3.2 gai/ha
[3] = GS 11-33, 20 DAT, use rate 0.4 gai/ha
[4] = 192 h, GS 11-33, 8 DAT, 3.2 gai/ha
[5] = 480 h, GS 11-33, 20 DAT, 1.6 gai/ha

C=C[C@]1(C(=O)N[C@H]2CO[C@@H](C(=O)OC)C2)CC(c2cc(F)cc(F)c2)=NO1 (mixture of isomers) [ISOX-8, methyl (2RS,4RS)-4-({[(5S)-3-(3,5-difluorophenyl)-5-vinyl-4,5-dihydroisoxazol-5-yl]carbonyl}amino)tetrahydrofuran-2-carboxylate]
activity at 0.4 g/ha (Abutilon theophrasti; 168 h, GS 11-33, 7 DAT): 5%
activity at 0.8 g/ha (Abutilon theophrasti; 168 h, GS 11-33, 7 DAT): 5%
activity at […] (Abutilon theophrasti; 168 h, GS 11-33, 7 DAT, 1.6 gai/ha): 10%
activity at […] (Abutilon theophrasti; [1]): 15%
activity at 0.4 g/ha (Abutilon theophrasti; 480 h, GS 11-33, 20 DAT): 5%
activity at 0.8 g/ha (Abutilon theophrasti; 480 h, GS 11-33, 20 DAT): 5%
activity at […] (Abutilon theophrasti; [2]): 20%
activity at 0.4 g/ha (Amaranthus tamariscinus; 168 h, GS 11-33, 7 DAT): 40%
activity at 0.4 g/ha (Amaranthus tamariscinus; 480 h, GS 11-33, 20 DAT): 35%
activity at 0.8 g/ha (Amaranthus tamariscinus; 480 h, GS 11-33, 20 DAT, 0.8 gai/ha): 75%
activity at 0.4 g/ha (Kochia scoparia; Bassia scoparia, post-emergence, 168 h, GS 11-33, 7 DAT, read-out: % activity (solo application)): 10%
activity at 0.8 g/ha (Kochia scoparia; Bassia scoparia, post-emergence, 168 h, GS 11-33, 7 DAT, 0.8 gai/ha, isoxazolin, read-out: % activity (solo application)): 25%
activity at […] (Kochia scoparia; Bassia scoparia, post-emergence, 168 h, GS 11-33, 7 DAT, 3.2 gai/ha, read-out: % activity (solo application)): 55%
activity at 0.4 g/ha (Kochia scoparia; Bassia scoparia, post-emergence, 480 h, GS 11-33, 20 DAT, read-out: % activity (solo application)): 10%
activity at […] (Kochia scoparia; Bassia scoparia, post-emergence, 480 h, GS 11-33, 20 DAT, 1.6 gai/ha, read-out: % activity (solo application)): 60%
activity at […] (Kochia scoparia; Bassia scoparia, post-emergence, 480 h, GS 11-33, 20 DAT, 3.2 gai/ha, read-out: % activity (solo application)): 70%
% activity (Kochia scoparia; GS 11-33, 7 DAT, use rate 3.2 gai/ha): 55%
% activity (Kochia scoparia; [3]): 10%
activity at 0.4 g/ha (Echinocloa crus-galli; 168 h, GS 11-33, 7 DAT): 15%
activity at 0.4 g/ha (Echinocloa crus-galli; 480 h, GS 11-33, 20 DAT): 10%
% activity (Echinocloa crus-galli; [3]): 10%
% activity (Echinocloa crus-galli; GS 11-33, 20 DAT, use rate 0.8 gai/ha): 35%
activity at 0.4 g/ha (Eleusine indica; 168 h, GS 11-33, 7 DAT): 10%
activity at 0.4 g/ha (Eleusine indica; 480 h, GS 11-33, 20 DAT): 5%
activity at […] (Eleusine indica; [2]): 70%
activity at 0.4 g/ha (Setaria viridis; 192 h, GS 11-33, 8 DAT): 10%
activity at 0.8 g/ha (Setaria viridis; 192 h, GS 11-33, 8 DAT): 25%
activity at […] (Setaria viridis; [4]): 40%
activity at 0.4 g/ha (Setaria viridis; 480 h, GS 11-33, 20 DAT): 10%
activity at 0.8 g/ha (Setaria viridis; 480 h, GS 11-33, 20 DAT): 25%
activity at […] (Setaria viridis; [5]): 50%
activity at […] (Setaria viridis; [2]): 85%
% activity (Setaria viridis; GS 11-33, 8 DAT, use rate 0.4 gai/ha): 10%
% activity (Setaria viridis; GS 11-33, 8 DAT, use rate 3.2 gai/ha): 40%
activity at […] (Brachiaria decumbens; 192 h, GS 11-33, 8 DAT, 1.6 gai/ha): 25%
activity at […] (Brachiaria decumbens; [4]): 50%
activity at […] (Brachiaria decumbens; [2]): 30%
% activity (Brachiaria decumbens; solo application, BRADC, GS 11-33, 20 DAT, use rate 1.6 gai/ha): 20%
activity at 0.4 g/ha (Avena fatua; 168 h, GS 11-33, 7 DAT): 25%
activity at […] (Avena fatua; [1]): 70%
activity at 0.4 g/ha (Avena fatua; 480 h, GS 11-33, 20 DAT): 60%
activity at […] (Avena fatua; [5]): 85%
activity at […] (Avena fatua; [2]): 90%
activity at 0.4 g/ha (Setaria faberi; 0.4 gai/ha): 20%
activity at […] (Setaria faberi; 1.6 gai/ha): 60%
activity at […] (Setaria faberi; 3.2 gai/ha): 90%
activity at […] (Commenline benghalensis; 1.6 gai/ha): 45%
activity at […] (Commenline benghalensis; 3.2 gai/ha): 45%
activity at 0.4 g/ha (Commenline benghalensis; 480 h, GS 11-33, 20 DAT, 0.4 gai/ha): 15%
activity at 0.4 g/ha (Digitaria sanguinales; Digitaria, post-emergence, 192 h, GS 11-33, 8 DAT, 0.4 gai/ha, read-out: % activity (solo application)): 10%
activity at […] (Digitaria sanguinales; Digitaria, post-emergence, 480 h, GS 11-33, 20 DAT, 3.2 gai/ha, read-out: % activity (solo application)): 60%
% activity (Digitaria sanguinales; solo application, DIGSA, GS 11-33, 20 DAT, use rate 0.8 gai/ha): 10%
activity at 0.8 g/ha (Sorghum halepense; Sorghum halepense, post-emergence, 480 h, 0.8 gai/ha, isoxazolin, read-out: % activity (solo application)): 55%
activity at […] (Sorghum halepense; Sorghum halepense, post-emergence, 480 h, 1.6 gai/ha, read-out: % activity (solo application)): 60%
activity at […] (Sorghum halepense; Sorghum halepense, post-emergence, 480 h, 3.2 gai/ha, read-out: % activity (solo application)): 85%
% activity (Sorghum halepense; solo application, SORHA, use rate 0.8 gai/ha): 35%
activity at […] (Lolium multiflorum; 168 h, GS 11-33, 7 DAT): 50%
activity at […] (Lolium multiflorum; 480 h, GS 11-33, 20 DAT): 80%
% activity (Lolium multiflorum; solo application, LOLMU, GS 11-33, 7 DAT, use rate 3.2 gai/ha): 50%
